In patent US10994016B2, “Graphene oxide mediated cellular delivery of gadolinium-labeled molecules” (Northwestern University, priority 2015, dated 2021):

Test system: HeLa cells
Test: Cellular delivery studies with and without GO co-incubation, HeLa
Format: cell-based
Method: ICP-MS Samples were prepared in 15-mL conical tubes by adding ACS reagent grade nitric acid (70%), followed by incubation at 70° C. overnight to allow for complete sample digestion. The effectiveness of this digestion protocol was previously validated for GO. After incubation, a multi-element internal standard (containing Bi, Ho, In, Li, Sc, Tb, and Y, Inorganic Ventures, Christiansburg, Va.) and milli-Q water (18.2 MΩ·cm) were added to produce a final sample of 3% (v/v) nitric acid and 5 ng/mL internal standard.
ICP-MS was performed on a computer-controlled (Plasmalab software) Thermo X series II ICP-MS (Thermo Fisher Scientific, Waltham, Mass., USA) operating in standard mode equipped with an ESI SC-2 autosampler (Omaha, Nebr., USA). Each sample was acquired using 1 survey run (10 sweeps) and 3 main (peak jumping) runs (100 sweeps). The isotopes selected for analysis were Gd with In and Ho isotopes selected as internal standards for data interpolation. Instrument performance is optimized daily through an autotune followed by verification via a performance report (passing manufacturer specifications). Instrument calibration was accomplished by preparing individual-element Gd standards (Inorganic Ventures, Christiansburg, Va., USA) using concentrations of 0.78125, 1.5625, 3.125, 6.25, 12.50, 25.00, 50.00, 100.0, and 200.0 ng/mL containing 3.0% nitric acid (v/v) and 5.0 ng/mL of multi-element internal standard.
Dulbecco's modified phosphate buffered saline (DPBS), media, and dissociation reagents were purchased from Life Technologies (Carlsbad, Calif.). CorningBrand® cell culture consumables (flasks, plates, etc.) and sera were purchased from VWR Scientific (Radnor, Pa.). HeLa cells (ATCC® CCL-2™) and KB cells (ATCC® CCL-17™) were purchased from the American Type Culture Collection (ATCC, Manassas, Va.) and cultured in phenol red-free minimum essential media (MEM) supplemented with 10% fetal bovine serum (FBS). Prior to all experiments, cells were plated and allowed to incubate for 24 hours before dosing. Cells were harvested with 0.25% TrypLE for 5 minutes at 37° C. in a 5.0% CO2 incubator. For sterilization, all Gd(III)-labeled molecules were filtered with 0.2 μm sterile filters prior to concentration determination and storage at 4° C. GO was used as prepared without further sterilization. […] Cells were grown in a humidified incubator operating at 37° C. and 5.0% CO2.
Cell counting was conducted using a Guava EasyCyte Mini Personal Cell Analyzer (EMD Millipore, Billerica, Mass.). After cell harvesting, an aliquot (50 μL) of the cell suspensions was mixed with Guava ViaCount reagent (150 μL) and allowed to stain at room temperature for at least 5 minutes. The dilution factor of 4 was determined based upon optimum machine performance (20-150 cells/μL). After vortexing for 10 sec, stained cells were counted using a Guava EasyCyte Mini Personal Cell Analyzer (PCA) using the ViaCount software module. For each sample, 1000 events were acquired. Gating of live/dead and cell/debris classifications were performed manually by the operator.
Cellular delivery studies were performed with HeLa and KB cells. HeLa and KB were plated at a cell density of approximately 25,000 and 50,000 cells per well, respectively, in a 24-well plate as counted by a hemocytometer. Stock solutions of 1-14 (1 mM), 150 nm GO (100 μg/mL), and 1500 nm GO (100 μg/mL) were prepared using sterile Milli-Q water. Prior to dosing, 80 μL ([…]) of each GO (150 nm and 1500 nm) and 80 μL (80 nmol) of each Gd(III)-labeled molecule (1-14) were mixed and allowed to adsorb for at least 15 minutes. 150 μL Gd(III)-GO solutions were added to 250 μL media to give a final concentration of 188 μM Gd and 18.8 μg/mL GO. Cells were incubated with the mixture of Gd(III)-labeled molecules and GO for […]. To harvest, cells were rinsed in-plate three times with 500 μL PBS and trypsinized using 100 μL 0.25% TrypLE. […]

Diethylenetriaminepentaacetic acid gadolinium(III) dihydrogen salt hydrate [Molecule 11]
Enhancement by GO (35 mM Magnevist, 20 μg/mL GO, 24-well plates): 3.3 × | Enhancement by GO (6-well plates): 3.1 × | Delivery enhancement without adsorption time (150 nm GO, mixture added directly to media): abolished | Delivery enhancement without adsorption time (1500 nm GO, 188 μM Gd(III), 18.8 μg/mL GO): same result | Magnevist uptake (with GO, 35 mM Magnevist, 20 μg/mL GO (150 nm), 17 trials): 515±319 fmol Gd/cell | Typical cellular Gd(III) content (with GO, 35 mM Magnevist, 20 μg/mL GO, 24-well plates, N=11): 299±67 fmol/cell | Loading (cellular Gd(III) content) (with GO, 6-well plates, N=13): 151±56 fmol/cell | Magnevist uptake (without GO, 35 mM Magnevist, 10 trials): 115±32 fmol Gd/cell | Typical cellular Gd(III) content (without GO, 35 mM Magnevist, 24-well plates, N=4): 91±9 fmol/cell | Loading (cellular Gd(III) content) (without GO, 6-well plates, N=4): 49±19 fmol/cell
